Reference: patent publication US6517846B2, “Cosmetic composition” (Kyowa Hakko Kogyo Co., Ltd., priority 2000, dated 2003)
Counter-ions that a name gives are not always drawn. Like-named read-outs stand apart in the source and are kept apart here.

Tests used:
[1] = tested on: human normal keratinocytes; experiment: Cytotoxicity in human normal keratinocytes, neutral red (NR) method; assay type: cell-based; details: 48 hours incubation, 1 to 10,000 ppm, pH 7, mean n = 4
Method: (2) Neutral red (NR) method:
NR penetrates plasma membranes and is concentrated in lysosomes in normal cells, but is not capable of being incorporated into cells with surface damages. Thus, the NR method is a method where the number of living cells is evaluated by determining the amount of NR incorporated in living cells (the absorbance at a wavelength of 540 nm was measured), and was carried out according to the NR bioassay data book of Sanko Pure Chemicals.
(§1) (4) Using the above three methods for the evaluation of suppression of cytotoxicity, suppressive effects of the test compounds on cytotoxicity were determined as follows.

[2] = tested on: human skin (forearm crook, females with roughening skin); details: 78 hours after the first treatment on day 1, 5 w/v % solution
[3] = tested on: human subjects (washing hands); details: grades scored; 1 Very irritative, 5 Very mild; mean n = 5
Method: The test compounds were evaluated using the following five grades. The intermediate grade between 1 and 3 was made 2, and that between 3 and 5 was made 4. Each grade 1, 2, 3, 4, 5 was scored as −5, −1.5, 0, 1.5, and 5, respectively, and the average of the scores was calculated for each evaluation item.

[4] = tested on: human skin (forearm crook, females with roughening skin)
Method: A cup of 1-cm diameter was closely fixed to the skin of a forearm crook, and 0.5 ml of a solution containing 5 w/v % test compound was poured into the cup for treatment for 30 minutes. Then, the test site was washed with tepid water and wiped with a Kim wipe.
On the next day of that when the above treatment was completed, transpiration rates of water at the treated sites were measured using a TEWA meter (TM210, supplied by Nippon Eurotech Co., Ltd.)

[5] = tested on: human skin (forearm crook, females with roughening skin); experiment: Water content in skin after repeated cup treatment (Skicon-200); assay type: in vivo; details: for Change of water content immediately before the treatment / Change of water content immediately after the second treatment: 5 w/v % solution; for Change of water content immediately before the treatment: twice a day; for water content in the skin, tendency in words: summary of Table 3
Method: A cup of 1-cm diameter was closely fixed to the skin of a forearm crook, and 0.5 ml of a solution containing 5 w/v % test compound was poured into the cup for treatment for 30 minutes. Then, the test site was washed with tepid water and wiped with a Kim wipe. The skin was acclimated under a constant environment at a temperature of 20° C. and a relative humidity of 50% for 20 minutes, and then, the water content in skin was measured using Skicon-200 (supplied by IBS Corporation). The treatment was repeated twice a day and continued for 4 days to determine the change of the water content in skin. The water content in each site to be treated before the treatment on day 0 was defined as 100%, and the water content in each site treated with the test compound immediately before and after the treatment (after the second treatment) on each day was determined as a relative value (%).

[6] = tested on: human normal keratinocytes; experiment: Cytotoxicity in human normal keratinocytes, MTT method; assay type: cell-based; details: 48 hours incubation, 1 to 10,000 ppm, pH 7, mean n = 4
Method: (1) A method using 3-(4,5-dimethylthiazol-2-yl)-2,5-diphenyl tetrazolium bromide (MTT method):
This is a method where the number of living cells is evaluated by determining enzyme activity related to respiratory chain present in inner membranes of mitochondria in living cells. The amount of MTT formazan produced after incorporation of MTT into cells was determined by colorimetric quantification at a wavelength of 570 nm (reference: 650 nm). [See Sugawara, et al., “Saibou Baiyou (Cell Culture) III”, 4477-4482 (1984); J. Soc. Cosmet. Chem. Jpn., 27, 498-505 (1993)].
as §1

[7] = tested on: IL-1α; details: mean n = 2
Method: The determination of IL-1α was carried out using an IL-1α human ELISA system supplied by Amarsham.
The cells were seeded in a 25 cm^2-flask coated with collagen and cultured at 37° C. under 5% of CO2 for 6 days.
One day after the seeding, the test compounds prepared at given concentrations (1 to 10,000 ppm, pH 7) were each added to the culture and continuously incubated for 48 hours.
Also, the release of IL-1α from the cultured cells was determined by calculating IL-1α concentration in the culture media with a lapse of time.

[8] = Day 1 (0 hr.), baseline defined as 100%, 30 min
[9] = Day 1 (6 hr.), relative to pre-treatment = 100%
[10] = Day 2 (24 hr.), relative to pre-treatment = 100%
[11] = Day 2 (30 hr.), relative to pre-treatment = 100%
[12] = Day 3 (48 hr.), relative to pre-treatment = 100%
[13] = Day 3 (54 hr.), relative to pre-treatment = 100%
[14] = Day 4 (72 hr.), relative to pre-treatment = 100%
[15] = Day 4 (78 hr.), relative to pre-treatment = 100%

| Compound | NR, IC50 [1] [ppm] | Desquamation [2] | Erythema [2] | Irritation (after use), average score [3] | Change of water content immediately before the treatment [5, 8] [%] | Change of water content immediately after the second treatment [5, 9] [%] | Change of water content immediately before the treatment [5, 10] [%] | Change of water content immediately after the second treatment [5, 11] [%] | Change of water content immediately before the treatment [5, 12] [%] | Change of water content immediately after the second treatment [5, 13] [%] | Change of water content immediately before the treatment [5, 14] [%] | Change of water content immediately after the second treatment [5, 15] [%] | water content in the skin, tendency in words [5] | MTT, IC50 [6] [ppm] | further results |
| --- | --- | --- | --- | --- | --- | --- | --- | --- | --- | --- | --- | --- | --- | --- | --- |
| CCCCCCCCCCCC(=O)NCCC(=O)O [LBA, sodium salt of lauroyl β-alanine] | 33 | A little | None | 1.5 | 100 | 113 | 88 | 82 | 104 | 104 | 93 | 101 | no effect on the water content was observed | 35 | Desquamation ([2]; listed as lauroyl β-alanine): lowest; water transpiration rate, in words ([4]; summary of Table 5): lowest |
| triethanolamine N-cocoyl glutamate [GAT] | 48 | Somewhat aggravated | None | 1.2 | 100 | 88 | 97 | 76 | 111 | 78 | 80 | 73 | tendency to decrease immediately after the treatment | 60 | Desquamation ([2]; listed as N-cocoyl-L-glutamate): much desquamation; Relative water transpiration rates ([4]; next day after the 4-day treatment, Control = 100, mean n = 4): 138%; IL-1α ([7]; 10 ppm test compound): 172.16 pg/well; IL-1α ([7]; 30 ppm test compound): 216.18 pg/well; IL-1α ([7]; 60 ppm test compound): 333.05 pg/well; IL-1α ([7]; 100 ppm test compound): 313.78 pg/well; IL-1α ([7]; 300 ppm test compound): 269.13 pg/well |
| Triethanolamine N-Cocoyl-L-glutaminate [GMT] | 53 | – | – | – | 100 | 124 | 135 | 126 | 168 | 128 | 140 | 120 | tendency to increase with a lapse of time | 70 | – |
